The values below come from patent US12569464B2, “Protein-protein interaction inducing technology” (Arvinas Operations, Inc., priority 2016, dated 2026).

One assay has as its target T1, AR (Homo sapiens, UniProt P10275+P40337, T878A).
T1 construct: degradation Dmax of AR in LNCaP cells; endogenous in cells; host or cells: LNCaP
As to the kind of experiment: AR degradation in LNCaP cells (androgen receptor ELISA). The format is cell-based. To be noted: for DC50 / Dmax / maximum AR degradation Dmax: LNCaP cells; for DC50: read-out: AR degradation potency DC50; for Dmax: read-out: maximum AR degradation Dmax. The method, then:
(§1) The connector linking the AR-binding warhead and the VHL-binding warhead was systematically probed from 4 to 23 atoms. The AR degradation potency DC50 and the maximum percentage of degradation Dmax of AR in LNCaP cells were measured for each of these compounds. […] The binary binding potency with respect to AR was also measured for some of the compounds by the cell-based ligand (R1881) displacement assay. The ratio α between the AR-binding potency and the degradation potency are calculated when it is possible.
Androgen Receptor ELISA Assay
The protocols used with VCaP cells are described below. The androgen receptor ELISA assay was performed using PathScan AR ELISA (Cell Signaling Catalog #12850) according to the following assay steps: […]
(In general: An ELISA detects its analyte on a solid surface through an enzyme-linked reagent.)

Another assay deals with T2, Androgen Receptor (Homo sapiens, UniProt P10275).
T2 construct: expressed in transfected cells; host or cells: HEK293
T2 sequence (P10275 1-920): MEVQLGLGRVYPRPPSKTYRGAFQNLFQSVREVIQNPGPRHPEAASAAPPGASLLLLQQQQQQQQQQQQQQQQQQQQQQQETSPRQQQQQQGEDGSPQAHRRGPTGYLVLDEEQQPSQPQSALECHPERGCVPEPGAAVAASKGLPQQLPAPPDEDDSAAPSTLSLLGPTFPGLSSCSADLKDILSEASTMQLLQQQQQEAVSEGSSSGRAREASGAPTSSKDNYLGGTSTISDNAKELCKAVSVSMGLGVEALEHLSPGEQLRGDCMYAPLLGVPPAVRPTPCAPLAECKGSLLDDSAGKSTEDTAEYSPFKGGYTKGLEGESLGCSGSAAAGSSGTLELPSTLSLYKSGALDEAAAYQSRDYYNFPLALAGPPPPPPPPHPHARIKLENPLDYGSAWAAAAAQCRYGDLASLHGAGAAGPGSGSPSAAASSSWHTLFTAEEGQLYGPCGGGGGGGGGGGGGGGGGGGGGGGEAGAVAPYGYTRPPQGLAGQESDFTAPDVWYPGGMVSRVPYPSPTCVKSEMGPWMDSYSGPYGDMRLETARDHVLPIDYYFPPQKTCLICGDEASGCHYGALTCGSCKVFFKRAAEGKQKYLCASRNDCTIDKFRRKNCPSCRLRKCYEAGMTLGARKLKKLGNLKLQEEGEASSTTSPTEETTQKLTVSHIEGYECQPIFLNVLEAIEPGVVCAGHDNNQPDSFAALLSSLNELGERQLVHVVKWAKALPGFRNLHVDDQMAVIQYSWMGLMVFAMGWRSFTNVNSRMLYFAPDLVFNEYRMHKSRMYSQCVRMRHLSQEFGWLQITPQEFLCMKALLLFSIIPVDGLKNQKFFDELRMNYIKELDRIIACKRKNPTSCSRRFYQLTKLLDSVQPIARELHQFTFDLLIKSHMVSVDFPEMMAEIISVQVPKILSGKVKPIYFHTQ
As to the kind of experiment: Cell-based ligand (R1881) displacement assay, binary binding to AR. To be noted: read-out: binary binding potency IC50^AR in cells. How it is done: It is composed of an AR-binding warhead which is connected to a VHL-binding warhead by a linear connector. […] MD simulation of a ternary system composed of AR ligand-binding domain, a ligand and the complex of VHL with elongin B (EB) and elongin C (EC) in the presence of explicit water was performed. The ligand in the simulation is a close analog of the ligand L above and only differs from the ligand L above by having a methyl substitution at the 4-position of the thiazole group.
as §1
The experimental protocol is based on reference Gustafson et al. (Angew. Chem. Int. Ed., 54: 9659-9662). HEK293 cells were transiently transfected using Fugene 6 to overexpress wildtype Androgen Receptor. During binding assay, transfected cells were grown in DMEM supplemented with 10% charcoal-stripped FBS. Cells were treated for two hours with the indicated competitor compound in the presence of 0.1 nM ^3H-R1881. Cells were washed in PBS, lysed in 200 ul lysis buffer (2% SDS, 10% Glycerol, 10 mM Tris-HCl [pH 6.8]), and cleared with the addition of 300 ul of 10 mM Tris-HCl (pH 8.0). 300 ul of these lysates were added to 3 mL of Cytoscint (MP Biomedicals), and scintillation counting was performed on a Beckman LS 6000SC instrument. Counts (cpm) were normalized to total protein amount in each sample, as determined via the Pierce BCA Protein Assay Kit (Thermo Scientific) per the manufacturer's instructions.

The structures appear in SMILES notation.

T1 sequence (Q15370 whole entry): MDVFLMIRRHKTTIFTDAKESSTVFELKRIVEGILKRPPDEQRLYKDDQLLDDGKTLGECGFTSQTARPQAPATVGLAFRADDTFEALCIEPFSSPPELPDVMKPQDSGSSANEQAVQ
T1 sequence (P40337 whole entry): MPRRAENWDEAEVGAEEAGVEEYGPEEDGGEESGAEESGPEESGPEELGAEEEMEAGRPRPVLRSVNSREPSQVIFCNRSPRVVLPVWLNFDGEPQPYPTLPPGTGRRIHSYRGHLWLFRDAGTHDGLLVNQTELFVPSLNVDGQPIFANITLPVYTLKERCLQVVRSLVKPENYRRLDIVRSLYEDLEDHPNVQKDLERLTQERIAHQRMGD
T1 sequence (P10275 whole entry T878A): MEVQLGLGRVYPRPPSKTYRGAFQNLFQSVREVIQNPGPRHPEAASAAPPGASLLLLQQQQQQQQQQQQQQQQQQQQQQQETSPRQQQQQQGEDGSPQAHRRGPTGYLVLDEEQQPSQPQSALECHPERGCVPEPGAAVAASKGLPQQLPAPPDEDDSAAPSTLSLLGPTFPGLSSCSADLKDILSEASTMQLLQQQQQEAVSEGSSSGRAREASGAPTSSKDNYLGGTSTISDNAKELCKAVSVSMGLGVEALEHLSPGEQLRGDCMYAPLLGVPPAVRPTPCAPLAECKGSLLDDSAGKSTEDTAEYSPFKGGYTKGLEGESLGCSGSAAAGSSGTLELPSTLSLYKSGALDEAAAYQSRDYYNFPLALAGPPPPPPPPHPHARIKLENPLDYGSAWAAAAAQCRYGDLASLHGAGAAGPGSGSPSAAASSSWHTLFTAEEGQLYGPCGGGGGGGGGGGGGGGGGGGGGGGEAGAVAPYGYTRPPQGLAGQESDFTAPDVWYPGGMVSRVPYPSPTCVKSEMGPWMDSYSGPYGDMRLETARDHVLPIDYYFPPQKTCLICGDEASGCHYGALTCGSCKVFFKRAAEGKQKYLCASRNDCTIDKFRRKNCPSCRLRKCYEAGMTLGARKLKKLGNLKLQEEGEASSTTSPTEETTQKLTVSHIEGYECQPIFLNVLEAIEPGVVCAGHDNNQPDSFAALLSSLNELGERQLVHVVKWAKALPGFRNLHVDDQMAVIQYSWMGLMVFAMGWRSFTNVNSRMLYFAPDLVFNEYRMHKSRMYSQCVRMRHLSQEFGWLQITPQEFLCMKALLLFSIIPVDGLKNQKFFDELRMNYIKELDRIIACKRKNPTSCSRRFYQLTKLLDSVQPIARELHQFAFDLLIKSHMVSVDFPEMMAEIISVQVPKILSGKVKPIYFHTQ
T1 sequence (Q15369 whole entry, further chain): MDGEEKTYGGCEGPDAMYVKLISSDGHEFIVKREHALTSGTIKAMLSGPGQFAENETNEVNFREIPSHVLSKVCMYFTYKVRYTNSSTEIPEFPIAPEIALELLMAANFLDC

Usually DC50 stands for the midpoint of the concentration-degradation curve. A word on the Dmax: it is the greatest extent of degradation seen. For orientation: IC50 means the concentration that inhibits the measured activity by half. As to `Cc1ncsc1-c1ccc(CNC(=O)[C@@H]2C[C@@H](O)CN2C(=O)[C@@H](NC(=O)CCCOc2ccc(N3C(=S)N(c4ccc(C#N)c(C(F)(F)F)c4)C(=O)C3(C)C)cc2)C(C)(C)C)cc1` [Compound 1], at AR, the DC50 is more than 3 µM and the maximal degradation (Dmax) came to 35%. The IC50 at Androgen Receptor was 0.97 µM.

For `Cc1ncsc1-c1ccc(CNC(=O)[C@@H]2C[C@@H](O)CN2C(=O)[C@@H](NC(=O)COCCOc2ccc(N3C(=S)N(c4ccc(C#N)c(C(F)(F)F)c4)C(=O)C3(C)C)cc2)C(C)(C)C)cc1` [Compound 2], at AR, the “ratio α between AR-binding potency IC50 and degradation potency DC50” value is reported as less than 1; the “maximum AR degradation Dmax” value is reported as 51%; the DC50 came to 1.7 µM. The IC50 at Androgen Receptor was 2.14 µM.

As for `Cc1ncsc1-c1ccc(CNC(=O)[C@@H]2C[C@@H](O)CN2C(=O)[C@@H](NC(=O)COCCOCCCOc2ccc(N3C(=S)N(c4ccc(C#N)c(C(F)(F)F)c4)C(=O)C3(C)C)cc2)C(C)(C)C)cc1` [Compound 6], at AR, the “maximum AR degradation Dmax” value came out at 54% and the DC50 turned out to be 0.072 µM.

On to `Cc1ncsc1-c1ccc(CNC(=O)[C@@H]2C[C@@H](O)CN2C(=O)[C@@H](NC(=O)COCCCOCCCOc2ccc(N3C(=S)N(c4ccc(C#N)c(C(F)(F)F)c4)C(=O)C3(C)C)cc2)C(C)(C)C)cc1` [Compound 7], for which, at AR, the “maximum AR degradation Dmax” value was 56% and the DC50 was 0.39 µM.

For `Cc1ncsc1-c1ccc(CNC(=O)[C@@H]2C[C@@H](O)CN2C(=O)[C@@H](NC(=O)COCCCOCCCCCOc2ccc(N3C(=S)N(c4ccc(C#N)c(C(F)(F)F)c4)C(=O)C3(C)C)cc2)C(C)(C)C)cc1` [Compound 9], on AR, the “ratio α between AR-binding potency IC50 and degradation potency DC50” value was determined as 23.5; the “maximum AR degradation Dmax” value was 83%; the DC50 was found to be 0.0344 µM. Further, the half-inhibitory concentration (IC50) on Androgen Receptor was found to be 0.81 µM.

Consider `Cc1ncsc1-c1ccc(CNC(=O)[C@@H]2C[C@@H](O)CN2C(=O)[C@@H](NC(=O)COCCCCOCCCCCOc2ccc(N3C(=S)N(c4ccc(C#N)c(C(F)(F)F)c4)C(=O)C3(C)C)cc2)C(C)(C)C)cc1` [Compound 10], for which, on AR, the “maximum AR degradation Dmax” value is on record as 77% and the DC50 is 0.06 µM.

With `Cc1ncsc1-c1ccc(CNC(=O)[C@@H]2C[C@@H](O)CN2C(=O)[C@@H](NC(=O)COCCOCCOCCCCCOc2ccc(N3C(=S)N(c4ccc(C#N)c(C(F)(F)F)c4)C(=O)C3(C)C)cc2)C(C)(C)C)cc1` [Compound 11], on AR, the “ratio α between AR-binding potency IC50 and degradation potency DC50” value amounted to 105; the “maximum AR degradation Dmax” value is 60%; the DC50 turned out to be 0.011 µM. Moreover, the IC50 at Androgen Receptor amounted to 1.15 µM.

With `Cc1ncsc1-c1ccc(CNC(=O)[C@@H]2C[C@@H](O)CN2C(=O)[C@@H](NC(=O)COCCOCCOCCCOCCOCCOc2ccc(N3C(=S)N(c4ccc(C#N)c(C(F)(F)F)c4)C(=O)C3(C)C)cc2)C(C)(C)C)cc1` [Compound 14], at AR, the DC50 is 0.22 µM and the Dmax came to 52%. Further, at Androgen Receptor, the IC50 is 4.95 µM.

As for `Cc1ncsc1-c1ccc(CNC(=O)[C@@H]2C[C@@H](O)CN2C(=O)[C@@H](NC(=O)COCCOCCOCCCCOCCOCCOc2ccc(N3C(=S)N(c4ccc(C#N)c(C(F)(F)F)c4)C(=O)C3(C)C)cc2)C(C)(C)C)cc1` [Compound 15], on AR, the DC50 is 0.029 µM and the Dmax was found to be 58%. Also, on Androgen Receptor, the IC50 was determined as 3.48 µM.

As to `Cc1ncsc1-c1ccc(CNC(=O)[C@@H]2C[C@@H](O)CN2C(=O)[C@@H](NC(=O)COCCOCCOCCOCCOCCOCCOc2ccc(N3C(=S)N(c4ccc(C#N)c(C(F)(F)F)c4)C(=O)C3(C)C)cc2)C(C)(C)C)cc1` [Compound 16], at AR, the DC50 was found to be 3 µM and the maximal degradation (Dmax) is 90%. Besides, the IC50 at Androgen Receptor amounted to 1.75 µM.

As for `Cc1ncsc1-c1ccc(CNC(=O)[C@@H]2C[C@@H](O)CN2C(=O)[C@@H](NC(=O)COCCOCCCCOCCCCOCCOCCOc2ccc(N3C(=S)N(c4ccc(C#N)c(C(F)(F)F)c4)C(=O)C3(C)C)cc2)C(C)(C)C)cc1` [Compound 17], on AR, the DC50 was more than 3 µM and the Dmax came out at 43%. Besides, on Androgen Receptor, the 50% inhibitory concentration (IC50) was 1.42 µM.

Consider `Cc1ncsc1-c1ccc(CNC(=O)[C@@H]2C[C@@H](O)CN2C(=O)[C@@H](NC(=O)COCCOCCCCCOCCCCCOCCOCCOc2ccc(N3C(=S)N(c4ccc(C#N)c(C(F)(F)F)c4)C(=O)C3(C)C)cc2)C(C)(C)C)cc1` [Compound 18], for which, on AR, the “ratio α between AR-binding potency IC50 and degradation potency DC50” value is less than 1; the “maximum AR degradation Dmax” value came to 47%; the DC50 is more than 3 µM. The 50% inhibitory concentration (IC50) on Androgen Receptor came to 0.96 µM.
